Experimental data from PMC9774241, “Associating Biological Activity and Predicted Structure of Antimicrobial Peptides from Amphibians and Insects” (Antibiotics, 2022).
Converted amounts (≈) assume the structure as drawn. Residues, ends and D or L forms follow the SMILES beside them. No end group written: not given here.

How the values were obtained:
Format in all cases: cell-based
Details in all cases: broth microdilution in MHB, peptide 128 down to 0.5 µg/mL, 20–24 h at 37 °C, no visible growth; range of three independent experiments
[1] = tested on: Escherichia coli ATCC 25922
Description: (§1) Bacteria were grown overnight at 37 °C in Mueller-Hinton Broth (MHB; Sigma-Aldrich, St. Louis. MO, USA) in a shaking incubator and aliquoted into cryovials with a 50% glycerol solution in a 1:1 ratio. No additives were added to the MHB during the growth of bacterial isolates. Glycerol stocks were stored at −80 °C.
(§2) The antimicrobial activity of the putative AMPs was determined by a broth microdilution assay as described by the Clinical and Laboratory Standards Institute, with the published adaptations for testing of cationic peptides. Escherichia coli 25922 and Staphylococcus aureus 29213 isolates were purchased from the American Type Culture Collection (ATCC; Manassas, VA, USA). A human clinical isolate of Salmonella enterica serovar Enteritidis was provided by the BC Centre for Disease Control. Bacteria from stocks stored at −80 °C were streaked onto nonselective Columbia blood agar with 5% sheep blood (Oxoid) and incubated overnight at 37 °C. Next, 2–4 colonies were streaked onto a new agar plate to ensure uniform health of colonies used in the broth microdilution assay. Isolated colonies were suspended in MHB and the optical density was measured with a spectrophotometer to create an initial inoculum concentration of approximately 1 × 10^8 cfu/mL. The inoculum was diluted 1:250 to a final concentration of 2–8 × 10^5 cfu/mL, which was confirmed by performing a Total Viability Count (TVC). The TVC consisted of plating a 1:1000 dilution of the final inoculum on nonselective media and was also used to confirm the health and purity of the inoculum in each trial.
(§3) Lyophilized 80 µg peptide aliquots synthesized by GenScript (Piscataway, NJ, USA) were resuspended to 1.28 mg/mL with UltraPure water (Thermo Fisher Scientific, Waltham, MA, USA) and serially diluted in polypropylene 96-well microtiter plates (Greiner Bio-One #650261, Kremsmünster, Austria) from 128 down to 0.5 µg/mL. Two columns per plate were reserved for growth and sterility controls. Inoculum was added to the wells containing the peptide and the growth control. Plates were incubated for 20–24 h at 37 °C. The minimum inhibitory concentration (MIC) was determined as the lowest peptide concentration where there was no visible bacterial growth.

[2] = tested on: Salmonella enterica serovar Enteritidis (human clinical isolate)
Description: as §1, §2, §3

[3] = tested on: Staphylococcus aureus ATCC 29213
Description: as §1, §2, §3

Compound	MIC, E. coli ATCC 25922 [1] [µg/mL]	MIC, Salmonella Enteritidis [2] [µg/mL]	MIC, S. aureus ATCC 29213 [3] [µg/mL]
CC[C@H](C)[C@H](NC(=O)[C@H](CCCCN)NC(=O)[C@H](CCCCN)NC(=O)CNC(=O)[C@H](C)NC(=O)CNC(=O)[C@H](CC(C)C)NC(=O)[C@H](CC(C)C)NC(=O)CNC(=O)[C@H](CO)NC(=O)[C@H](CC(C)C)NC(=O)[C@H](CC(C)C)NC(=O)CN)C(=O)N[C@H](C(=O)N[C@@H](CS)C(=O)NCC(=O)N[C@@H](CC(C)C)C(=O)N[C@@H](CO)C(=O)NCC(=O)N[C@@H](CCSC)C(=O)N[C@@H](CS)C(=O)O)C(C)C [OdMa3] (H-GLLSGLLGAGKKIVCGLSGMC-OH; N-terminus and C-terminus assumed)	8 to 16	64 (≈ 32.4 µM)	32 (≈ 16.2 µM)
CC[C@H](C)[C@H](NC(=O)CNC(=O)[C@H](CO)NC(=O)[C@@H](NC(=O)[C@H](CC(C)C)NC(=O)CN)[C@@H](C)CC)C(=O)N[C@@H](CC(C)C)C(=O)NCC(=O)N[C@@H](C)C(=O)NCC(=O)N[C@@H](CCCCN)C(=O)N[C@@H](CCCCN)C(=O)N[C@H](C(=O)N[C@@H](CC(C)C)C(=O)N[C@@H](CS)C(=O)NCC(=O)N[C@@H](CC(C)C)C(=O)N[C@@H](CO)C(=O)NCC(=O)N[C@@H](CC(C)C)C(=O)N[C@@H](CS)C(=O)O)C(C)C [OdMa10] (H-GLISGILGAGKKVLCGLSGLC-OH; N-terminus and C-terminus assumed)	16 to 32	> 128	64 to 128
GAHKEVFKRDTALTKEAAKKAKK [ApMe2]	> 128	> 128	> 128
GIFSLIKGAAKVVAKGLG [PeNi3, rAMPage-discovered AMP, Pelophylax nigromaculatus]	16 to 32	64 to 128	64 to 128
AVLSFVHKLFLNFLHVDTSKGKCRATLQ [TeRu3]	> 128	> 128	> 128
GIFGGLLKEGKKIACGLSGLC [OdTo3, rAMPage-discovered AMP, Odorrana tormota]	32	> 128	> 128
GIYTGRLLPVYIPQPRPPHPRLRR [ApCe1]	4 to 8	16 to 32	> 128
GIFSLIKGAAKVVAKGLGK [RaOm3]	8 to 16	32 to 64	64
GSSSRSCRCIRLSRLSSKRT [NaVi4]	> 128	> 128	> 128
KLFLTLWKLKR [NaVi3]	8 to 16	64	128
ATAWKVPPGLQPIRPIRIRPLCGNDKS [PeNi16]	> 128	> 128	> 128
CC(C)C[C@H](NC(=O)CNC(=O)[C@H](CO)NC(=O)[C@H](CC(C)C)NC(=O)CNC(=O)[C@H](CS)NC(=O)[C@H](CC(C)C)NC(=O)[C@@H](NC(=O)[C@H](CCCCN)NC(=O)[C@H](CCCCN)NC(=O)CNC(=O)[C@@H](NC(=O)CNC(=O)[C@H](CC(C)C)NC(=O)[C@@H](NC(=O)CNC(=O)[C@H](CO)NC(=O)[C@H](CC(C)C)NC(=O)[C@H](CC(C)C)NC(=O)CN)C(C)C)C(C)C)C(C)C)C(=O)N[C@@H](CS)C(=O)O [OdMa7] (H-GLLSGVLGVGKKVLCGLSGLC-OH; N-terminus and C-terminus assumed)	8 to 16	128 (≈ 64.9 µM)	16 to 32
CC[C@H](C)[C@H](NC(=O)[C@@H](N)C(C)C)C(=O)N1CCC[C@H]1C(=O)N[C@@H](Cc1ccccc1)C(=O)N[C@H](C(=O)N[C@@H](C)C(=O)N[C@@H](CO)C(=O)N[C@H](C(=O)N[C@@H](C)C(=O)N[C@@H](C)C(=O)N[C@@H](CCC(=O)O)C(=O)N[C@@H](CCSC)C(=O)N[C@@H](CCSC)C(=O)N[C@@H](Cc1c[nH]cn1)C(=O)N[C@@H](Cc1c[nH]cn1)C(=O)N[C@H](C(=O)N[C@@H](Cc1ccc(O)cc1)C(=O)N[C@@H](CS)C(=O)N[C@@H](C)C(=O)N[C@@H](C)C(=O)N[C@@H](CO)C(=O)N[C@@H](CCCCN)C(=O)N[C@@H](CCCNC(=N)N)C(=O)N[C@@H](CS)C(=O)N[C@@H](CCCCN)C(=O)N[C@@H](CC(N)=O)C(=O)O)C(C)C)C(C)C)C(C)C [PeNi7] (H-VIPFVASVAAEMMHHVYCAASKRCKN-OH; N-terminus and C-terminus assumed)	128 (≈ 44.7 µM)	> 128	> 128
VAAFAIIGCLCCRRPRR [PoRo1]	> 128	> 128	> 128
FPFPFGRR [RaSi2]	> 128	> 128	> 128
TALKSLSILKKLAKLNM [PoSn2, rAMPage-discovered AMP, Polistes snelleni]	64 to 128	> 128	> 128
AFVRILCYCCPRRIKRR [TeRu2, rAMPage-discovered AMP, Temnothorax rugatulus]	64 to 128	> 128	128
FLPSSPWNEGTYVLKKLKS [PeNi15]	> 128	> 128	> 128
GLVGKLVKGGLKLIGHVANG [RaSi1]	8 to 16	> 128	64 to 128
CC[C@H](C)[C@H](NC(=O)CN)C(=O)N[C@@H](CC(C)C)C(=O)N[C@@H](CO)C(=O)NCC(=O)N[C@@H](CC(C)C)C(=O)N[C@@H](CC(C)C)C(=O)NCC(=O)N[C@@H](C)C(=O)NCC(=O)N[C@@H](CCCCN)C(=O)N[C@@H](CCCCN)C(=O)N[C@H](C(=O)N[C@H](C(=O)N[C@@H](CS)C(=O)NCC(=O)N[C@@H](CC(C)C)C(=O)N[C@@H](CO)C(=O)NCC(=O)N[C@@H](CC(C)C)C(=O)N[C@@H](CS)C(=O)O)C(C)C)[C@@H](C)CC [OdMa5] (H-GILSGLLGAGKKIVCGLSGLC-OH; N-terminus and C-terminus assumed)	8 to 16	64 to 128	8 to 16
CC[C@H](C)[C@H](NC(=O)[C@H](CCCCN)NC(=O)[C@H](CCCCN)NC(=O)CNC(=O)[C@@H](NC(=O)CNC(=O)[C@H](CC(C)C)NC(=O)[C@@H](NC(=O)CNC(=O)[C@H](CO)NC(=O)[C@H](CC(C)C)NC(=O)[C@H](CC(C)C)NC(=O)CN)C(C)C)C(C)C)C(=O)N[C@H](C(=O)N[C@@H](CS)C(=O)NCC(=O)N[C@@H](CC(C)C)C(=O)N[C@@H](CO)C(=O)NCC(=O)N[C@@H](CC(C)C)C(=O)N[C@@H](CS)C(=O)O)C(C)C [OdMa6] (H-GLLSGVLGVGKKIVCGLSGLC-OH; N-terminus and C-terminus assumed)	8 to 16	128 (≈ 64.9 µM)	16 to 32
